Molecules are shown by their SMILES. pIC50: −log10 of the molar value. Counter-ions that a name gives are not always drawn.

The target in this assay is T1, EZH2 within the PRC2 complex (Homo sapiens, UniProt Q15910).
T1 construct: FLAG; made in house; host or cells: Sf9 cells
T1 sequence (Q15910 whole entry): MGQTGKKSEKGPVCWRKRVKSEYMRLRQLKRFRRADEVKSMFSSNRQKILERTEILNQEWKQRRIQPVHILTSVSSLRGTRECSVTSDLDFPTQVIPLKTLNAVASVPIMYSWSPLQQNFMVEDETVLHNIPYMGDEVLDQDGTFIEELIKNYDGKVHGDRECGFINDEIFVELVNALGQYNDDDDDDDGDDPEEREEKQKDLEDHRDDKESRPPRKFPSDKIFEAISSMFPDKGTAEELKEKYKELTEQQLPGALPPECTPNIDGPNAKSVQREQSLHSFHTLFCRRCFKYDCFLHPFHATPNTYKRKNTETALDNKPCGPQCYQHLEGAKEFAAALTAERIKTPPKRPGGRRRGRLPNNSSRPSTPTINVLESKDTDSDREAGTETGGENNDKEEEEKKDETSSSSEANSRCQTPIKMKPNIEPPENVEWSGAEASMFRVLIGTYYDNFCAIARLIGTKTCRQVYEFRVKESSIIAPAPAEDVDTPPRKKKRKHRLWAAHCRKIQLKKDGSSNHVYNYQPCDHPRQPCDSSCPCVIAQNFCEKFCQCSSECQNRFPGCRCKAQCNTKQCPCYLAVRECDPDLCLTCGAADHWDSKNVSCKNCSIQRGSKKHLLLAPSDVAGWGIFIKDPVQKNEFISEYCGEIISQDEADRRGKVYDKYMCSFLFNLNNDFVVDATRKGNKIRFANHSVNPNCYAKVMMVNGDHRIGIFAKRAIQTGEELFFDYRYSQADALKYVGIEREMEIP
T1 sequence (O75530 whole entry partner): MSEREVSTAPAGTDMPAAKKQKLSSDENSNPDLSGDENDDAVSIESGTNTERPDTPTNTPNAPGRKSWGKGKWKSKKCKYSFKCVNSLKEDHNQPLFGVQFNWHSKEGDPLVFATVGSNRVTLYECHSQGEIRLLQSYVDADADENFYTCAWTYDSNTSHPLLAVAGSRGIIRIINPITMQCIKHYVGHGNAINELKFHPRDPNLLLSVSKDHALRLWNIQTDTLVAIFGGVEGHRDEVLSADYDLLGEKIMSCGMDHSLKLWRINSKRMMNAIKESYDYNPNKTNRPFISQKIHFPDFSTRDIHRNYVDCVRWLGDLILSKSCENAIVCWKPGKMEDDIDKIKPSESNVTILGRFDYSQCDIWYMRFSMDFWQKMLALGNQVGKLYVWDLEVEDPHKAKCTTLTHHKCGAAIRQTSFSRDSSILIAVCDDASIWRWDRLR
T1 sequence (Q15022 whole entry partner): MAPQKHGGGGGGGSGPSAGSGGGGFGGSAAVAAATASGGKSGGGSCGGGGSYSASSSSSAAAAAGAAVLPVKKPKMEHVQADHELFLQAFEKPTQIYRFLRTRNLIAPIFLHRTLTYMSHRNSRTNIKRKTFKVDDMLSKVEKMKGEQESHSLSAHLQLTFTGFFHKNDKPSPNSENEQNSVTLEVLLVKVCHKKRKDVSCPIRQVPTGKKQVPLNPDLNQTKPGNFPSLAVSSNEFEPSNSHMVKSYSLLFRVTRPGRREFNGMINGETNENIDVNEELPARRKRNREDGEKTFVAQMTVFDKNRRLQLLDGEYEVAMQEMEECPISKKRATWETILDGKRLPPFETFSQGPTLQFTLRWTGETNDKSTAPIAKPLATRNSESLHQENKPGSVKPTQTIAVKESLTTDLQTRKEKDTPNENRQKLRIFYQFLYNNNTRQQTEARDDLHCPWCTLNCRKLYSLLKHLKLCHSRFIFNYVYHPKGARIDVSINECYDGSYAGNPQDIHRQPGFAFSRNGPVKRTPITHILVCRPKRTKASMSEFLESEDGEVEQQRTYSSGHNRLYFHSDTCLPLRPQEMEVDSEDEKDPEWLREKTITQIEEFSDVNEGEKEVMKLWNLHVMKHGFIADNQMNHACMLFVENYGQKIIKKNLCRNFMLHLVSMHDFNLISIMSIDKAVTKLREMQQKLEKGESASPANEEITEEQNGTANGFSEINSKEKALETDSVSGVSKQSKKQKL
T1 sequence (Q09028 whole entry partner): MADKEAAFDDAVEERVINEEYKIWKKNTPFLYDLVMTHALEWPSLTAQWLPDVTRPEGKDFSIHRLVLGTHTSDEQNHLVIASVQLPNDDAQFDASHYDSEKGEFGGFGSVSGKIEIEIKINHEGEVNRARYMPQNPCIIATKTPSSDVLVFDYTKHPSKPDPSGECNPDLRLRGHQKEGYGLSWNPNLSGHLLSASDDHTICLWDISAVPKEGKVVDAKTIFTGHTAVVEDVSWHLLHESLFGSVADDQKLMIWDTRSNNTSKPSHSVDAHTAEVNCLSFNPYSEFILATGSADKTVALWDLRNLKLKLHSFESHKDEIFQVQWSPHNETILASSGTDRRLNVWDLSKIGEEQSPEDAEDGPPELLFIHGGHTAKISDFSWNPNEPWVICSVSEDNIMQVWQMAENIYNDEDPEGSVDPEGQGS
T1 sequence (Q6ZN18 whole entry partner): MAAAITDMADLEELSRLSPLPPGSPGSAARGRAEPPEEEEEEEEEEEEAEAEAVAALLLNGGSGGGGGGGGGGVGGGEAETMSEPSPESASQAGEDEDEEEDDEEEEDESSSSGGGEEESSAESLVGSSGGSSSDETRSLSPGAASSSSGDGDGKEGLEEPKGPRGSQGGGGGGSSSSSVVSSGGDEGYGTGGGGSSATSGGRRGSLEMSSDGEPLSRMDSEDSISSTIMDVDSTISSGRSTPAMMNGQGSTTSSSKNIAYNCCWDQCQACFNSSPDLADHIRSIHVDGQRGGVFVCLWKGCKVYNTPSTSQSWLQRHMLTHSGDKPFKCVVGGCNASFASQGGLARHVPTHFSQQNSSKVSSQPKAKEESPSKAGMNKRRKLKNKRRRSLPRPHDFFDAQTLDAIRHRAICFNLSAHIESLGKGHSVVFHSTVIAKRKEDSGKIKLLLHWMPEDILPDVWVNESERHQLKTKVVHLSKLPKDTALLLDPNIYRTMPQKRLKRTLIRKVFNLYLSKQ
Briefly: Assay Protocol 2: EZH2 methyltransferase scintillation proximity assay, biotinylated histone H3 peptide substrate. Format: biochemical. Conditions: SPA, 3H-SAM, biotinylated unmethylated histone H3K27 peptide substrate, 5-member PRC2 complex. Here is the method: Compounds contained herein were evaluated for their ability to inhibit the methyltransferase activity of EZH2 within the PRC2 complex. […] The peptides were captured on streptavidin-coated SPA beads and the resulting signal was read on a ViewLux plate reader. • 4. Prepare 10 mM stock of compounds from solid in 100% DMSO. • 5. […] Dispense 10 nL of compound from the dilution plate into reaction plates (Corning, 384-well polystyrene NBS, Cat#3673). Prepare the following solutions: • 7. 1× Base Buffer, 50 mM Tris-HCl, pH 8, 2 mM MgCl2: Per 1 L of base buffer, combine 1 M Tris-HCl, pH 8 (50 mL), 1 M MgCl2 (2 mL), and distilled water (948 mL). • 8. 1× Assay Buffer: Per 10 mL of 1× Assay Buffer, combine 1× Base Buffer (9.96 mL), 1 M DTT (40 uL), and 10% Tween-20 (1 uL) to provide a final concentration of 50 mM Tris-HCl, pH 8, 2 mM MgCl2, 4 mM DTT, 0.001% Tween-20. • 9. 2× Enzyme Solution: […] SPA Bead Solution: Per 1 mL of SPA Bead Solution, combine Streptavidin coated SPA beads (PerkinElmer, Cat# RPNQ0261, 40 mg) and 1× Assay Buffer (1 mL) to provide a working concentration of 40 mg/mL. • 11. 2× Substrate Solution: Per 10 mL of 2× Substrate Solution, combine 40 mg/mL SPA Bead Solution (375 uL), 1 mM biotinylated histone H3K27 peptide (200 uL), 12.5 uM 3H-SAM (240 uL; 1 mCi/mL), 1 mM cold SAM (57 uL), and 1× Assay Buffer (9.13 mL) to provide a final concentration of 0.75 mg/mL SPA Bead Solution, 10 uM biotinylated histone H3K27 peptide, 0.15 uM 3H-SAM (˜12 uCi/mL 3H-SAM), and 2.85 uM cold SAM. • 12. 2.67× Quench Solution: Per 10 mL of 2.67× Quench Solution, combine 1× Assay Buffer (9.73 mL) and 10 mM cold SAM (267 uL) to provide a final concentration of 100 uM cold SAM. • 3. […] Dispense 5 uL/well of 1× Assay Buffer to column 18 (low control reactions). • 11. Dispense 5 uL/well of 2× Substrate Solution to columns 1-24 (note: substrate solution should be mixed to ensure homogeneous bead suspension before dispensing into matrix reservoir). • 12. Dispense 5 uL/well of 2× Enzyme Solution to columns 1-17, 19-24. • 13. Incubate the reaction for 60 min at room temperature. • 5. Dispense 6 uL/well of the 2.67× Quench Solution to columns 1-24. • 6. Seal assay plates and spin for ˜1 min at 500 rpm. • 7. Dark adapt plates in the ViewLux instrument for 15-60 min. • 2. Read the assay plates on the Viewlux Plate Reader utilizing the 613 nm emission filter or clear filter (300 s exposure). Reagent addition can be done manually or with automated liquid handler. Percent inhibition was calculated relative to the DMSO control for each compound concentration and the resulting values were fit using standard IC50 fitting parameters within the ABASE data fitting software package.
The compound `CCN(c1cccc2c1C/C=C/CCc1cc(C)[nH]c(=O)c1CNC2=O)C1CC2(CC(N(C)C)C2)C1` (stereo not drawn) [Example 71, (E)-10-((6-(dimethylamino)spiro[3.3]heptan-2-yl)(ethyl)amino)-3-methyl-5,6,15,16-tetrahydrobenzo[c]pyrido[4,3-j][1]azacyclododecine-1,14(2H,9H)-dione] had a pIC50 of 6.60.
The figure for `CCN(c1cccc2c1C/C=C/CCc1cc(C)[nH]c(=O)c1CNC2=O)C1CCC2(CC1)CN(C)C2` [Example 67, (E)-10-(ethyl(2-methyl-2-azaspiro[3.5]nonan-7-yl)amino)-3-methyl-5,6,15,16-tetrahydrobenzo[c]pyrido[4,3-j][1]azacyclododecine-1,14(2H,9H)-dione] is 7.00; for `CCN(c1cccc2c1C/C=C/CCc1cc(C)[nH]c(=O)c1CNC2=O)C1CCN(N(C)C)CC1` [Example 65, (E)-10-((1-(dimethylamino)piperidin-4-yl)(ethyl)amino)-3-methyl-5,6,15,16-tetrahydrobenzo[c]pyrido[4,3-j][1]azacyclododecine-1,14(2H,9H)-dione] it is 6.50; for `CCN(c1cccc2c1C/C=C/CCc1cc(C)[nH]c(=O)c1CNC2=O)[C@H]1CC[C@H](NCC(F)(F)F)CC1` [Example 58, (E)-10-(ethyl(trans-4-((2,2,2-trifluoroethyl)amino)cyclohexyl)amino)-3-methyl-5,6,15,16-tetrahydrobenzo[c]pyrido[4,3-j][1]azacyclododecine-1,14(2H,9H)-dione] it is 6.80.
To `CCN(c1nccc2c1C/C=C/CCc1cc(C)[nH]c(=O)c1CNC2=O)C1CCOCC1` [Example 63, (E)-10-(ethyl(tetrahydro-2H-pyran-4-yl)amino)-3-methyl-5,6,15,16-tetrahydrodipyrido[3,4-c:3′,4′-j][1]azacyclododecine-1,14(2H,9H)-dione] belongs 6.60.
For `Cc1cc2c(c(=O)[nH]1)CNC(=O)c1cccc(O[C@H]3CC[C@H](N(C)C)CC3)c1C/C=C\CC2` [Example 85, (Z)-10-((trans-4-(dimethylamino)cyclohexyl)oxy)-3-methyl-5,6,15,16-tetrahydrobenzo[c]pyrido[4,3-j][1]azacyclododecine-1,14(2H,9H)-dione], the pIC50 was 5.30. This pIC50 is 1.30 log units lower than that of the compound before.
The compound `CCN(c1cccc2c1C/C=C/CCc1cc(C)[nH]c(=O)c1CNC2=O)[C@H]1CC[C@H](O)CC1` [Example 79, (E)-10-(ethyl(trans-4-hydroxycyclohexyl)amino)-3-methyl-5,6,15,16-tetrahydrobenzo[c]pyrido[4,3-j][1]azacyclododecine-1,14(2H,9H)-dione] had a pIC50 of 6.90.
`Cc1cc2c(c(=O)[nH]1)CNC(=O)c1cccc(O[C@H]3CC[C@H](N(C)C)CC3)c1C/C=C/CC2` [Example 84, (E)-10-((trans-4-(dimethylamino)cyclohexyl)oxy)-3-methyl-5,6,15,16-tetrahydrobenzo[c]pyrido[4,3-j][1]azacyclododecine-1,14(2H,9H)-dione]: the pIC50 was 6.70. Against the preceding compound, the pIC50 is 0.20 log units lower.
The figure for `CCN(c1cccc2c1C/C=C/CCc1cc(C)[nH]c(=O)c1CNC2=O)[C@H]1CC[C@H](NC)CC1` [Example 73, (E)-10-(ethyl(trans-4-(methylamino)cyclohexyl)amino)-3-methyl-5,6,15,16-tetrahydrobenzo[c]pyrido[4,3-j][1]azacyclododecine-1,14(2H,9H)-dione formic acid salt] is 6.90; for `CCN(c1cccc2c1C/C=C/CCc1cc(C)[nH]c(=O)c1CNC2=O)[C@H]1CC[C@H](N2CC(F)(F)C2)CC1` [Example 81, (E)-10-((trans-4-(3,3-difluoroazetidin-1-yl)cyclohexyl)(ethyl)amino)-3-methyl-5,6,15,16-tetrahydrobenzo[c]pyrido[4,3-j][1]azacyclododecine-1,14(2H,9H)-dione] it is 6.70; for `CCN(c1cccc2c1C/C=C/CCc1cc(C)[nH]c(=O)c1CNC2=O)[C@H]1CC[C@@H](NC)CC1` [Example 74, (E)-10-(ethyl(cis-4-(methylamino)cyclohexyl)amino)-3-methyl-5,6,15,16-tetrahydrobenzo[c]pyrido[4,3-j][1]azacyclododecine-1,14(2H,9H)-dione formic acid salt] it is 6.80.
The figure for `CCN(c1cccc2c1C/C=C/CCc1cc(C)[nH]c(=O)c1CNC2=O)[C@H]1CC[C@H](NCC(F)F)CC1` [Example 56, (E)-10-((trans-4-((2,2-difluoroethyl)amino)cyclohexyl)(ethyl)amino)-3-methyl-5,6,15,16-tetrahydrobenzo[c]pyrido[4,3-j][1]azacyclododecine-1,14(2H,9H)-dione] is 6.90; for `CCN(c1cccc2c1C/C=C/CCc1cc(C)[nH]c(=O)c1CNC2=O)[C@H]1CC[C@H](NCCC(F)(F)F)CC1` [Example 83, (E)-10-(ethyl(trans-4-((3,3,3-trifluoropropyl)amino)cyclohexyl)amino)-3-methyl-5,6,15,16-tetrahydrobenzo[c]pyrido[4,3-j][1]azacyclododecine-1,14(2H,9H)-dione] it is 6.80; for `CCN(c1cccc2c1C/C=C/CCc1cc(C)[nH]c(=O)c1CNC2=O)[C@H]1CC[C@H](N(C)CC(F)F)CC1` [Example 57, (E)-10-((trans-4-((2,2-difluoroethyl)(methyl)amino)cyclohexyl)(ethyl)amino)-3-methyl-5,6,15,16-tetrahydrobenzo[c]pyrido[4,3-j][1]azacyclododecine-1,14(2H,9H)-dione] it is 7.00.
Regarding `CCN(c1cccc2c1C/C=C/CCc1cc(C)[nH]c(=O)c1CNC2=O)C1CC2(CC(N)C2)C1` (stereo not drawn) [Example 70, (E)-10-((6-aminospiro[3.3]heptan-2-yl)(ethyl)amino)-3-methyl-5,6,15,16-tetrahydrobenzo[c]pyrido[4,3-j][1]azacyclododecine-1,14(2H,9H)-dione], the pIC50 was 6.90.
Compound `CCN(c1cccc2c1C/C=C/CCc1cc(C)[nH]c(=O)c1CNC2=O)[C@H]1CC[C@H](N2CCC2)CC1` [Example 60, (E)-10-((trans-4-(azetidin-1-yl)cyclohexyl)(ethyl)amino)-3-methyl-5,6,15,16-tetrahydrobenzo[c]pyrido[4,3-j][1]azacyclododecine-1,14(2H,9H)-dione] gave a pIC50 of 5.90.
`CCN(c1cccc2c1C/C=C/CCc1cc(C)[nH]c(=O)c1CNC2=O)[C@H]1CC[C@@H](N2CC(F)C2)CC1` [Example 75, (E)-10-(ethyl(cis-4-(3-fluoroazetidin-1-yl)cyclohexyl)amino)-3-methyl-5,6,15,16-tetrahydrobenzo[c]pyrido[4,3-j][1]azacyclododecine-1,14(2H,9H)-dione] showed a pIC50 of 6.60.
Regarding `CCN(c1cccc2c1C/C=C/CCc1cc(C)[nH]c(=O)c1CNC2=O)C1CCCNCC1` (stereo not drawn) [Example 77, (E)-10-(azepan-4-yl(ethyl)amino)-3-methyl-5,6,15,16-tetrahydrobenzo[c]pyrido[4,3-j][1]azacyclododecine-1,14(2H,9H)-dione], the pIC50 was 6.80.
The figure for `Cc1cc2c(c(=O)[nH]1)CNC(=O)c1cccc(N(CCO)C3CCOCC3)c1C/C=C/CC2` [Example 64, (E)-10-((2-hydroxyethyl)(tetrahydro-2H-pyran-4-yl)amino)-3-methyl-5,6,15,16-tetrahydrobenzo[c]pyrido[4,3-j][1]azacyclododecine-1,14(2H,9H)-dione] is 6.60.
The figure for `CCN(c1cccc2c1C/C=C/CCc1cc(C)[nH]c(=O)c1CNC2=O)C1CC2(CCN(C)CC2)C1` [Example 69, (E)-10-(ethyl(7-methyl-7-azaspiro[3.5]nonan-2-yl)amino)-3-methyl-5,6,15,16-tetrahydrobenzo[c]pyrido[4,3-j][1]azacyclododecine-1,14(2H,9H)-dione] is 6.80; for `CCN(CC)[C@H]1CC[C@H](N(CC)c2cccc3c2C/C=C/CCc2cc(C)[nH]c(=O)c2CNC3=O)CC1` [Example 49, (E)-10-((trans-4-(diethylamino)cyclohexyl)(ethyl)amino)-3-methyl-5,6,15,16-tetrahydrobenzo[c]pyrido[4,3-j][1]azacyclododecine-1,14(2H,9H)-dione] it is 6.80.

The term pIC50 denotes the IC50 on a negative log10 scale, so that one unit is a factor of ten.

(Values after patent US20160122342A1, “ENHANCER OF ZESTE HOMOLOG 2 INHIBITORS” (GLAXOSMITHKLINE INTELLECTUAL PROPERTY (NO.2) LIMITED, priority 2013, published 2016).)
